From paper PMC5797143, “Epigenetic modulation of inflammation and synaptic plasticity promotes resilience against stress in mice” (Nature Communications, 2018)
Where two headings read alike, the source gives them in different places.

What was measured:
[1] = Cytotoxicity by high content screening (HCS); assay type: cell-based; conditions: human, HepG2 cells
From the text: (§1) Based on the efficacy of DHCA/Mal-gluc in treating stress-induced depression, we initiated an in vitro toxicity and drug-like properties studies to investigate the potential of developing these two phytochemicals as novel therapies. […] At low concentrations, DHCA and Mal-gluc had no detectable effects on cell number, nuclear size, DNA structure, cell membrane permeability, mitochondrial mass, mitochondrial membrane potential or cytochrome C release in high content screening (HCS)[41] using HepG2 cells (Table 1). At high concentrations, Mal-gluc reduced cell number, increased nuclear size, […], and increased mitochondrial mass, with calculated EC50s beyond physiological concentration (Table 1).
(§2) MTT and LDH release assays were conducted in MSN-enriched primary neurons and in PBMCs[64]. Cellular cytotoxicity was conducted in HepG2 cells using high content screening (HCS) protocols. Briefly, HepG2 cells were plated on 384-well tissue culture treated black walled clear bottomed polystyrene plates and treated with varying concentrations of Mal-gluc or DHCA. The cells were loaded with the relevant dye/antibody for each cell-health marker following incubation, including cell count, markers for nuclear size, DNA structure, cell membrane permeability, mitochondrial mass, mitochondrial membrane potential and cytochrome C release. The plates were then scanned using an automated fluorescent cellular imager ArrayScanr (Thermo Scientific Cellomics).

[2] = test system: 37 monoaminergic receptors and transporters; assay: Radioligand binding assay, whole panel; conditions: concentrations as high as 10 µM
Description: Currently available antidepressants are believed to act by modifying the activity of the brain monoaminergic system, [47]. We evaluated whether Mal-gluc and DHCA directly interact with the monoaminergic system using a radioligand binding assay.
Radioligand binding assays were performed as previously described. Briefly, crude membrane fractions prepared from a stable HEK cell line expressing recombinant receptors were mixed with a radiolabeled specific ligand and 10 µM of competitor compound (DHCA, Mal-gluc, or non-specific ligand). The percentage of radioligand binding was subsequently measured.

[3] = test system: Toll-like receptor-4 mediated signaling pathways (JNK, p38, ERK, AKT); assay: Multiplex ELISA of phosphorylated signaling proteins in PBMCs after LPS; assay type: cell-based, mouse
Description: To investigate how DHCA may attenuate IL-6 generation, we tested the effect of DHCA on Toll-like receptor-4 mediated signaling pathways. PBMCs were pretreated with DHCA and stimulated with LPS using the same protocol as during screening. Samples were taken at 0, 30 min, 60 min, 6 h and 16 h following LPS stimulation and cell lysates were subjected to a multiplex ELISA assay. […] Based on evidence that DNA methylation at a single CpG in the human IL-6 promoter region effectively alters IL-6 expression, we next tested whether DHCA can modulate IL-6 gene expression through methylation mechanisms. We treated PBMC cells with DHCA and measured the expression of enzymes essential for DNA methylation/demethylation. […] To investigate how methylation influences IL-6 gene expression, we employed the CpG-free luciferase reporter system. We cloned a ~280 bp CpG rich DNA segment from the mouse IL-6 promoter into a promoterless CpG-free reporter construct and transfected into N2a cells. We found the CpG-rich IL-6 promoter segment presented no inherent promoter activity as reflected by no differences in luciferase activity compared to the control construct (Fig. 2f). […] We then cloned CpG rich DNA segments from IL-6 introns 1, 3 or 4 into the CpG-free luciferase reporter construct with a minimal EF1 promoter and no enhancer activity. […] In contrast, the CpG-rich region of IL-6 intron 4 presented no observable enhancer activity (Fig. 2g). […] To test whether DHCA may influence the expression of other pro-inflammatory factors, we measured the level of secreted cytokines following LPS stimulation (Supplementary Fig. 3).
Luminex xMAP multiplexed immunoassays were used to evaluate the levels of phosphorylated proteins in PBMCs pre-treated with DHCA for 16 h followed by LPS stimulation. PBMCs were washed once with PBS and immediately lysed with MilliplexMAP Cell Signaling Universal Lysis Buffer and applied to the assay following manufacturer’s instruction (EMD Millipore). The phosphoprotein analytes used were: AKT (Ser473), JNK (Thr183/Tyr185), ERK (Thr185/Tyr187), p38 […] (Millipore, MA). Multiplex MAP mouse cytokine/chemokine Panel (EMD Millipore) was used to measure the levels of 32 cytokines/chemokines in mouse plasma or PBMC cultures.

HepG2 cells = assay: Cytotoxicity by high content screening (HCS); assay type: cell-based
From the text: as §1, §2

[4] = Plasma protein binding, mouse plasma; assay type: in vitro ADME
Description: Compound stability in mouse and human plasma and in mouse brain homogenate were conducted, [45]. Specifically, Mal-gluc or DHCA was incubated in duplicate with plasma at 37 °C and samples were taken at various time points and mixed with three volumes of ice-cold Stop Solution (methanol containing propranolol, diclofenac, or other internal standard). Samples were centrifuged to remove precipitated protein, and the supernatants were analyzed by LC/MS/MS to quantitate for remaining test compound. Data are converted to percentage remaining by dividing by the time zero concentration value. Data are fit to a first-order decay model to determine half-life. Plasma protein binding were conducted using both mouse and human plasma.

[5] = DHCA ↑ (NS, fit not statistically significant), NR = No response observed, read-out: Cytotoxicity by HCS (AC50), Mitochondrial membrane potential
[6] = DHCA ↑, NR = No response observed, read-out: Cytotoxicity by HCS (AC50), Cytochrome C release
[7] = Malvidin-gluc ↑, NR = No response observed, read-out: Cytotoxicity by HCS (AC50), Mitochondrial mass
[8] = Malvidin-gluc ↑, NR = No response observed, read-out: Cytotoxicity by HCS (AC50), Nuclear size
[9] = Malvidin-gluc ↓, NR = No response observed, read-out: Cytotoxicity by HCS (AC50), Cell number
[10] = NR = No response observed, read-out: Cytotoxicity by HCS (AC50), DNA structure
[11] = both ↓, read-out: Cytotoxicity by HCS (AC50), Cell membrane permeability
[12] = 30 min and 60 min following LPS, no further changes at 6 h and 16 h
[13] = PBMCs, DHCA pretreatment, 0, 30 min, 60 min, 6 h, 16 h after LPS

Row | SMILES | AC50 [1, 5] | AC50 [1, 6] | AC50 [1, 7] | AC50 [1, 8] | AC50 [1, 9] | AC50 [1, 10] | AC50 [1, 11] | binding with any of the 37 receptors and transporters tested [2] | decrease in AKT activation [3, 12] | decrease in ERK activation [3, 12] | activation (phosphorylation) of JNK [3, 13] | activation (phosphorylation) of p38 [3, 13] | AC50 (HepG2 cells; [5]) | AC50 (HepG2 cells; [6]) | AC50 (HepG2 cells; [7]) | AC50 (HepG2 cells; [8]) | AC50 (HepG2 cells; [9]) | AC50 (HepG2 cells; [10]) | AC50 (HepG2 cells; [11]) | Plasma protein binding, Mean fraction unbound (mouse plasma) [4]
1 | O=C(O)CCc1ccc(O)c(O)c1 [DHCA, 3(3,4-dihydroxy-phenyl) propionic acid] | > 200 µM | > 200 µM | > 200 µM | > 200 µM | > 200 µM | > 200 µM | 56.6 µM | no significant binding | ~ 10% | ~ 10% | no effect | no effect | – | – | – | – | – | – | – | –
2 | COc1cc(-c2[o+]c3cc(O)cc(O)c3cc2O[C@@H]2O[C@H](CO)[C@@H](O)[C@H](O)[C@H]2O)cc(OC)c1O [Mal-gluc] | – | – | – | – | – | – | – | – | – | – | – | – | > 200 µM | > 200 µM | 176 µM | 88.4 µM | 176 µM | > 200 µM | 52.7 µM | 55.70%
